Assay results from PMC12250347, “Calcium-dependent pathway as a primary cause of hypoxic RGC damage in monkey retinal explants” (PLOS One, 2025).
pIC50: −log10 of the molar value. Entries after “also recorded” stand apart in the source; their conditions may differ.

Key:
[1] = molecular target: T1, human erythrocyte calpain 1 (Homo sapiens, UniProt P07384); experiment: Calpain-Glo Protease Assay; type: biochemical; conditions: 5 mM CaCl2, 10 min, room temperature; mean of two experiments
T1 construct: human erythrocyte calpain 1 (MilliporeSigma); purchased MilliporeSigma; host or cells: human erythrocytes
T1 sequence (P07384 1-714): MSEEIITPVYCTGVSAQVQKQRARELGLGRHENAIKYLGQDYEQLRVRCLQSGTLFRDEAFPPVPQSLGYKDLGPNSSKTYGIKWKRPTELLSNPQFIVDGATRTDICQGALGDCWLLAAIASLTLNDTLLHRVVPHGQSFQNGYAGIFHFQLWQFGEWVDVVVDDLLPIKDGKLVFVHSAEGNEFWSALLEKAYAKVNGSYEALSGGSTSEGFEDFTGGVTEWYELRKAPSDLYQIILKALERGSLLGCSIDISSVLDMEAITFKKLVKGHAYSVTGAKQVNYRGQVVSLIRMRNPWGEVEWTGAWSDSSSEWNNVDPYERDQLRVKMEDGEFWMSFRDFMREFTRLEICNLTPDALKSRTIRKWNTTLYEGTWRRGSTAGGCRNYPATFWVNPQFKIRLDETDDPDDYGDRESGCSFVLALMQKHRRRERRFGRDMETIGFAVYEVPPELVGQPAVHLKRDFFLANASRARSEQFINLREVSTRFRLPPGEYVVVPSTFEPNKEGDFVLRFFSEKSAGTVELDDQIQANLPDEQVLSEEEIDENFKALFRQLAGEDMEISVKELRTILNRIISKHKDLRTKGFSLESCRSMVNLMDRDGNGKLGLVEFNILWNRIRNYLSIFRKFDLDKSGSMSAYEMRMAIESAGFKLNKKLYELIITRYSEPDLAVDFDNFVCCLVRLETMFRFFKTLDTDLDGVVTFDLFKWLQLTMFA
T1 sequence (P04632 1-268 partner): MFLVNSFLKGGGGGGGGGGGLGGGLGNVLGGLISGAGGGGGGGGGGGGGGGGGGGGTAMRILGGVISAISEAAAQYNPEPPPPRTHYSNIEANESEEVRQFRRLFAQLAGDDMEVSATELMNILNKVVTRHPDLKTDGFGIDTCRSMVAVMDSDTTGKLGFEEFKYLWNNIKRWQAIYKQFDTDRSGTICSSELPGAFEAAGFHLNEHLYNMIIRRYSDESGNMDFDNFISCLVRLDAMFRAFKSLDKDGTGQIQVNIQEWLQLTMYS
Protocol: (§1) For measurement of inhibitory activities against calpains in vitro, Calpain-Glo Protease Assay (Promega; Madison, WI, USA) was performed using human erythrocyte calpain 1 (MilliporeSigma) and purified porcine calpain 2. Briefly, 24 µL of each calpain diluted with 20 mM Tris-HCl (pH 7.4), 1 µL of each inhibitor, and 25 µL of reaction buffer including CaCl2 in a 96-well plate was incubated for 10 min at room temperature. The final concentration of CaCl2 in the reaction solution was 5 mM. The luminescence was measured using a microplate reader (GloMax Discover System; Promega). IC50 values from two independent experiments were averaged.

[2] = system: calpains 1 and 2 in monkey retinal lysate; experiment: In vitro inhibitory assay of calpains from retinal lysate (CaCl2, immunoblotting); type: biochemical; conditions: non-cultured monkey retina lysate, 10 mM CaCl2, 2 hr, 37°C; inhibitor at 1, 10 and 100 µM
Protocol: (§2) Each retinal explant was sonicated in RIPA Lysis and Extraction Buffer (Thermo Fisher Scientific), with protease inhibitors cocktail (Complete Mini-EDTA-free; MilliporeSigma). Protein concentrations in lysates were measured by BCA assay (Pierce BCA Protein Assay Kit, Thermo Fisher Scientific) using bovine serum albumin as a standard. For immunoblotting, 5 μg of each sample was loaded and run on 4% to 12% gradient or 10% SDS-PAGE gels (NuPAGE Bis-Tris Protein Gels, Thermo Fisher Scientific) with 2-(N-morpholino)ethanesulfonic acid buffer or 3-(N-morpholino) propanesulfonic acid buffer (Thermo Fisher Scientific). Proteins were then electrotransferred to a polyvinylidene fluoride membrane (MilliporeSigma) at 100 V for 60 min or 1.5 hr. Membranes were then blocked with 5% skim milk in Tris-buffer saline (Bio-Rad Laboratories, Hercules, CA, USA) containing 0.05% Tween 20. Each membrane was probed with primary antibodies against α-spectrin (1:2000 dilution, Enzo Life Sciences, Farmingdale, NY, USA), SBDP150 (1:1000 dilution, Senju Pharmaceutical), calpain 1 (1:1000 dilution, Thermo Fisher Scientific), calpain 2 (1:500, GeneTex, Irvine, CA, USA), cathepsin K (1:500 dilution, Abcam), and β-actin (1:1000 dilution, Merck). For calpain 1, immunoreactivity was visualized using a secondary antibody conjugated to alkaline phosphatase and the AP Conjugate Substrate Kit (Bio-Rad Laboratories). For other proteins, immunoreactivities were visualized using secondary antibodies conjugated with rabbit (Santa Cruz Biotechnology) or mouse horseradish peroxidase enzyme (Cytiva, Wilmington, DE, USA) and ECL Plus detection reagents (Cytiva). Images of the membranes were captured with FluorChem FC2 imager (Cell Biosciences, Santa Clara, CA, USA). The conversion of pro-cathepsin K (38 kDa) to its mature form (27 kDa) was used as an indicator of cathepsin K activation.
To confirm the isozyme specificities of calpain inhibitors in vitro, non-cultured monkey retinas were sonicated in a buffer containing 20 mM Tris (pH 7.5), 5 mM EGTA, 5 mM EDTA, 2 mM DTE. […]

[3] = system: purified porcine calpain 2; experiment: Calpain-Glo Protease Assay; type: biochemical; conditions: 5 mM CaCl2, 10 min, room temperature; mean of two experiments
Description: The porcine kidney was obtained from DART Co., Ltd. as part of a program aimed at the effective utilization of livestock by-products in Hokkaido, Japan. The procurement process followed ethical guidelines from Livestock Industry Bureau MAFF-J (ministry of agriculture, forestry and fisheries of Japan) for farm animal use, ensuring compliance with relevant regulations. Two porcine kidneys were rapidly frozen after removal, trimmed free of excess tissue or renal pelvis, and cut into small pieces (approximately 2 × 2 cm) before they thawed. About 250 g of these pieces were homogenized in 1200 mL of ice-cold 20 mM Tris-HCl (pH 8.0) with 5 mM ethylenediaminetetraacetic acid (EDTA), 0.1% 2-mercaptoethanol (2-ME), 0.1 mg/mL Pefabloc SC (MilliporeSigma, Burlington, MA, USA), 40 µg/mL bestatin, and 4 µg/mL pepstatin in a Waring blender HGBSS (Waring; Stamford, CT, USA) at 19,000 rpm using several bursts of 10 sec each with 20 sec cooling periods between each burst. The homogenate was centrifuged at 25,000 × g for 15 min at 4°C, and the supernatant was filtered through glass wool and a 5 µm filter (Merck) to remove floating lipids. The purification procedure was performed according to the method of Thompson and Goll with some minor modifications: the DEAE-cellulose and the DEAE-TSK ToyoPearl 650S columns were substituted with DEAE sepharose fast flow (Merck) and TSKgel DEAE-5PW (30) (Tosoh; Tokyo, Japan) columns, respectively. After purification, calpain-2 was dialyzed, and glycerol was added for freeze-thaw protection. The final buffer formulation was 20 mM imidazole, 5 mM 2-ME, 1 mM EDTA, 1 mM EGTA, and 20% glycerol.
as §1

[4] = system: calpain 1 activation and proteolysis of α-spectrin; experiment: Immunoblotting of retinal explants under hypoxia/reoxygenation; type: cell-based, rhesus macaques (Macaca mulatta); conditions: H16R8; BAPTA 3 or 10 mM, BAPTA-AM 0.1 or 0.5 mM
Protocol: (§3) Retina explant culture was performed as described in our previous report, except for the induction of hypoxia. Briefly, a hypoxic chamber (Coy Laboratory Products, Grass Lake, MI, USA) was controlled at 0.3% oxygen with a 95% N2/5% CO2 gas mixture. Retinas were dissected into fan-shaped explants with 6 or 7 petals (> 5 mm) in HBSS. Each explant was placed with the RGC side facing up on a Millicell organotypic standing insert (0.4 μm, 30 mm diameter, MilliporeSigma) in six-well, culture plates. They were cultured for 2 hr at 37°C under 95% N2/5% CO2 in Neurobasal-A medium supplemented with B27, N2 supplements, 2 mM L-glutamine (Thermo Fisher Scientific, Waltham, MA, USA), and 100 μg/mL primocin (Invivogen, San Diego, CA, USA). Retinal explants were then chamber-cultured under hypoxic conditions for 16 hr in a culture medium with 0.5 mM glucose, under 0.3% oxygen. The retinas were then re-oxygenated for 8 hr in a culture medium with 5.5 mM glucose. Normoxic control retinas were cultured for 24 hr in a culture medium with 5.5 mM glucose. When present, calpain inhibitors (SNJ-1945, PD-151746, C2I, and ABT-957) and cathepsin inhibitors (Odanacatib and SID26681509) in 0.1% DMSO were used at the final concentration of 10 or 100 μM in the medium. BAPTA (Thermo Fisher Scientific) and BAPTA-AM (Thermo Fisher Scientific) were also used at a final concentration of 3 or 10 mM or a final concentration of 100 or 500 μM, respectively.
(§4) All inhibitors and BAPTA were treated simultaneously with hypoxia induction, and BAPTA-AM treatment was 2 hr before hypoxia induction.
as §2

[5] = system: RGCs in monkey retinal explants; experiment: PI staining and RGC counting in retinal explants under hypoxia/reoxygenation; type: cell-based, rhesus macaques (Macaca mulatta); conditions: H16R8; calcium chelator at higher concentration (BAPTA 10 mM; BAPTA-AM 0.5 mM, 2 hr before hypoxia)
Description: Globes were obtained from rhesus macaques (Macaca mulatta) at 1–7 years of age from the Oregon National Primate Research Center (Beaverton, OR, USA). The wide range of ages was unavoidable because they became available from experiments that were unrelated to the present studies. These eyes were acceptable for the purpose of our experiments. The eyes were dissected within 5 hr after death, and excised eyes were soaked in cold Hanks’ balanced salt solution (HBSS; Corning, NY, USA) or Dulbecco’s phosphate-buffered saline (DPBS; Corning). Experimental animals were handled in accordance with the Research in Vision and Ophthalmology Statement for the Use of Animals in Ophthalmic and Vision Research and with the Guiding Principles in the Care and Use of Animals (Department of Health Education and Welfare Publication National Institutes of Health 80−23).
as §3, §4
To assess the disruption of membrane barrier function, propidium iodide (PI) was utilized. Following hypoxia/reoxygenation treatment, retinal explants were incubated for 20 min in a medium containing a final concentration of 2 μg/ml of PI. For quantitative analysis, the RGC marker, RNA-binding protein with multiple splicing (RBPMS) was used at a 1:100 dilution (PhosphoSolutions, Aurora, CO, USA). RBPMS-positive and PI-positive cells in the ganglion cell layer were counted in 2 images from 2 square areas (775 × 775 μm each) located 3–5 mm and 5–7 mm away from the tips of the fan-shaped retinal flat mounts. The percentage of PI-positive RGCs was calculated as [the number of PI and RBPMS-double positive cells/the number of all RBPMS-positive cells] × 100.

[6] = system: calpain-specific SBDP150 in nerve fiber layer (NFL); experiment: SBDP150 immunostaining of flat-mounted retinal explants under hypoxia/reoxygenation; type: cell-based, rhesus macaques (Macaca mulatta); conditions: H16R8
Protocol: as §3, §4
Formalin-fixed retinal explants were incubated overnight at −30°C in 1: 4 dilutions of DMSO-ethanol to promote antibody penetration. The explants underwent two cycles of freezing and thawing between −80°C and room temperature in 100% ethanol for 20 min. The retinas were then rehydrated in 70%, 50%, and 15% ethanol and PBS for 20 min each, followed by overnight incubation with 0.2% Triton X-100. The samples were stained with antibodies specific for calpain-specific SBDP150 [8] (1:100 dilution, Senju Pharmaceutical) and β-III tubulin (a neuron marker, 1:500 dilution, Merck). The nerve fiber layer (NFL) was observed approximately 5 mm from the tips of the fan-shaped retinal flat mounts. Confocal images were taken using a model LSM 880 spectral confocal system with a 20x 0.8 NA lens (Carl Zeiss, Oberkochen, Germany).

SMILES | pIC50 [1] | Effect on calcium-induced activation (autolysis) of calpains 1 and 2 and SBDP150 in retinal lysate [2] | pIC50 [3] | Effect on activation of calpain 1 and proteolysis of α-spectrin (immunoblot) [4] | Effect on RGC damage (PI-positive RGCs) [5] | Effect on SBDP150 staining in NFL ([6]; BAPTA-AM 500 μM) | Effect on SBDP150 staining in NFL ([6]; BAPTA at lower concentration (3 mM))
O=C(NC1CC1)C(=O)C(Cc1ccccc1)NC(=O)[C@H]1CCC(=O)N1Cc1ccccc1 (stereo partly drawn) [ABT-957] | 6.39 | inhibited the activation of both calpain 1 and calpain 2 in a dose-dependent manner | 6.37 | – | – | – | –
CC(=O)OCOC(=O)CN(CC(=O)OCOC(C)=O)c1ccccc1OCCOc1ccccc1N(CC(=O)OCOC(C)=O)CC(=O)OCOC(C)=O [BAPTA-AM] | – | – | – | mitigated | partial | inhibited the increase in SBDP150 staining | –
O=C(O)CN(CC(=O)O)c1ccccc1OCCOc1ccccc1N(CC(=O)O)CC(=O)O [BAPTA] | – | – | – | mitigated; also recorded: inhibited the autolytic activation of calpain 1 | almost completely inhibited | – | reduced SBDP150 staining
O=C(O)/C(S)=C/c1c[nH]c2ccc(F)cc12 [PD-151746] | 6.82 | also inhibited calpain activation, but not as strongly as SNJ-1945 and ABT-957 | 6.60 | – | – | – | –
